Laboratory results reported in patent publication US20160271086A1, “METHODS AND COMPOSITIONS FOR INDUCING REGULATORY T-CELL GENERATION” (SLOAN-KETTERING INSTITUTE FOR CANCER RESEARCH, priority 2013, published 2016).
“Also recorded” adds a separate entry of the source.

Key:
Flt3L-elicited DC = experiment: Foxp3 induction by DC pre-treated with SCFA or TSA for 6 h, washed, co-cultured with naïve CD4+ T cells; format: cell-based, mouse; conditions: DC pre-treated 6 h, then agent removed
Experimental: DC were expanded in vivo by subcutaneous injection of B16 melanoma cells secreting FLT3-ligand into the left hind flank of mice as indicated. Once tumors were visible, spleens from injected animals were dissociated in RPMI 1640 medium containing 1.67 U mL-1 liberase TL (Roche) and 50 μg mL-1 DNAse I (Roche) for 20 min at 37° C. with shaking EDTA was then added at a final concentration of 5 mM to stop digestion and the resulting homogenate was processed for CD11c+ cell isolation using the MACS mouse CD11c (N418) purification kit (Miltenyi Biotec).
(§1) In vitro Foxp3 induction assays were performed by co-culturing DC with 5.5×10^4 CD4+CD44loCD62LhiCD25-naïve T cells in the presence of 1 μg ml-1 of CD3 antibody, 1 ng mL-1 TGF-β, and 100 U ml-1 IL-2, in 96-well flat-bottom plates for 4 d. For Foxp3 induction in the presence of butyrate- or TSA-pretreated DC, TGF-β was used at 0.1 ng mL-1 final concentration. In vitro induction assays in the absence of DC were performed by incubating 5.5×10^4 naïve CD4+ T cells with 1 ng mL-1 TGF-β, 100 U ml-1 IL-2, and a 1:1 cell-to-bead ratio of CD3/CD28 T activator Dynabeads (Invitrogen). For in vitro suppression assays, 4×10^4 naïve CD4+ T cells were FACS-sorted from B6 mice and cultured with graded numbers of CD4+Foxp3+ Treg cells FACS-sorted from Foxp3GFP mice treated with antibiotics and with or without butyrate, in the presence of […] irradiated T cell-depleted splenocytes and 1 μg ml-1 CD3 antibody in a 96-well round-bottom plate for 80 h. Proliferation of T cells was assessed by [3H]-thymidine incorporation during the final 8 h of culture.

naïve CD4+ T cells [1] = experiment: In vitro Foxp3 induction assay: naïve CD4+ T cells co-cultured with DC, CD3 antibody, TGF-β, IL-2; format: cell-based, mouse; conditions: purified SCFA
Experimental: For in vitro experiments, CD4+ T cells and CD11c+ dendritic cells were enriched using mouse CD4 (L3T4, Invitrogen) and mouse CD11c (N418, BioLegend) antibodies, respectively, that were biotinylated for use with streptavidin-Dynabeads (Invitrogen). Enriched cells were then sorted on a FACSAria II cell sorter (BD Biosciences) for in vitro assays. Intracellular staining for IL-17, IFN-γ, IL-4, IL-13 and Foxp3 was performed using the Foxp3 staining kit (eBiosciences). Cytokine staining was performed after re-stimulation with CD3 antibody and CD28 antibody (5 μg ml-1 each) in the presence of Golgi-plug (BD Biosciences) for 5 hours. DC were expanded in vivo by subcutaneous injection of B16 melanoma cells secreting FLT3-ligand into the left hind flank of mice as indicated. Once tumors were visible, spleens from injected animals were dissociated in RPMI 1640 medium containing 1.67 U mL-1 liberase TL (Roche) and 50 μg mL-1 DNAse I (Roche) for 20 min at 37° C. with shaking EDTA was then added at a final concentration of 5 mM to stop digestion and the resulting homogenate was processed for CD11c+ cell isolation using the MACS mouse CD11c (N418) purification kit (Miltenyi Biotec). In vitro Foxp3 induction assays were performed by co-culturing DC with 5.5×10^4 CD4+CD44loCD62LhiCD25-naïve T cells in the presence of 1 μg ml-1 of CD3 antibody, 1 ng mL-1 TGF-β, and 100 U ml-1 IL-2, in 96-well flat-bottom plates for 4 d. For Foxp3 induction in the presence of butyrate- or TSA-pretreated DC, TGF-β was used at 0.1 ng mL-1 final concentration. In vitro induction assays in the absence of DC were performed by incubating 5.5×10^4 naïve CD4+ T cells with 1 ng mL-1 TGF-β, 100 U ml-1 IL-2, and a 1:1 cell-to-bead ratio of CD3/CD28 T activator Dynabeads (Invitrogen). […] Proliferation of T cells was assessed by [3H]-thymidine incorporation during the final 8 h of culture.

Foxp3+ Treg cells = experiment: SCFA in drinking water to AVNM-treated mice, flow cytometric analysis of Foxp3+ Treg cell subsets; format: in vivo; conditions: for colonic Treg cells (accumulation of Treg cells in the colon): SCFA in drinking water; for Treg cell subsets in the spleen: drinking water, AVNM-treated CNS1-sufficient mice
Description: Fox[…] (CNS1 knockout), Foxp3GFP, Foxp3Thy1.1 and Gpr109a-/- mice were used in the experiments as previously described (Zheng. Y. et al. Nature, 2010, 463, 808-12; Fontenot, J. D. et al. Immunity, 2005, 22, 329-41; Kim, J. M., et al. Nat Immunol, 2007, 8, 191-7). Male C57BL/6 (B6) mice were purchased from the Jackson Laboratory and groups of 5 co-housed mice were randomly assigned to treatment vs. control groups after confirmation that age and weight were in accordance between groups. Male mice were used for all experiments. All strains were maintained in the Sloan-Kettering Institute animal facility in accordance with institutional guidelines. Mice were sacrificed by CO2 asphyxiation then blindly processed for tissue harvest thereafter. For antibiotic treatment, mice at 5-6 weeks of age were treated with 1 g L-1 metronidazole (Sigma-Aldrich), 0.5 g L-1 vancomycin (Hospira), 1 g L-1 ampicillin (Sigma-Aldrich) and 1 g L-1 kanamycin (Fisher Scientific) dissolved in drinking water. […] Butyrate was administered to mice after prior treatment with antibiotics for at least 1 week. For in vitro experiments, CD4+ T cells and CD11c+ dendritic cells were enriched using mouse CD4 (L3T4, Invitrogen) and mouse CD11c (N418, BioLegend) antibodies, respectively, that were biotinylated for use with streptavidin-Dynabeads (Invitrogen). Enriched cells were then sorted on a FACSAria II cell sorter (BD Biosciences) for in vitro assays. Intracellular staining for IL-17, IFN-γ, IL-4, IL-13 and Foxp3 was performed using the Foxp3 staining kit (eBiosciences). Cytokine staining was performed after re-stimulation with CD3 antibody and CD28 antibody (5 μg ml-1 each) in the presence of Golgi-plug (BD Biosciences) for 5 hours.

GPR43 = molecular target: T1, GPR43 (Mus musculus, UniProt Q8VCK6); conditions: Smith et al. Science 2013; cited from earlier work
T1 sequence (Q8VCK6 1-330): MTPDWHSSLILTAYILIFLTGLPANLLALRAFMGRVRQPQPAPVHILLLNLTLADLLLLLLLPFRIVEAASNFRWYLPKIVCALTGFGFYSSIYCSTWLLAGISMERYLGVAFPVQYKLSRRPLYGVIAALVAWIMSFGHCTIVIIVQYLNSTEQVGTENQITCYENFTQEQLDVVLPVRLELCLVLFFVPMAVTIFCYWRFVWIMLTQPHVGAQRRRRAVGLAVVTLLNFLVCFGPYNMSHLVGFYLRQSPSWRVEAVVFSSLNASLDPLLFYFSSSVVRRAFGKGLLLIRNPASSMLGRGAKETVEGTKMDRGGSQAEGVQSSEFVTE

naïve CD4+ T cells [2] = experiment: In vitro Foxp3 induction in the absence of DC (CD3/CD28 antibody-coated beads, TGF-β); format: cell-based, mouse; conditions: purified naive CD4+ T cells, CD3 and CD28 antibody-coated beads
Experimental: as §1

[3] = LC-MS analysis of butyrate in serum; format: in vivo; conditions: AVNM-treated mice given butyrate in drinking water vs unperturbed SPF mice
Description: Foxp3ΔCNS1 (CNS1 knockout), Foxp3GFP, Foxp3Thy1.1 and Gpr109a−/− mice were used in the experiments as previously described (Zheng. Y. et al. Nature, 2010, 463, 808-12; Fontenot, J. D. et al. Immunity, 2005, 22, 329-41; Kim, J. M., et al. Nat Immunol, 2007, 8, 191-7). Male C57BL/6 (B6) mice were purchased from the Jackson Laboratory and groups of 5 co-housed mice were randomly assigned to treatment vs. control groups after confirmation that age and weight were in accordance between groups. Male mice were used for all experiments. All strains were maintained in the Sloan-Kettering Institute animal facility in accordance with institutional guidelines. Mice were sacrificed by CO2 asphyxiation then blindly processed for tissue harvest thereafter. For antibiotic treatment, mice at 5-6 weeks of age were treated with 1 g L-1 metronidazole (Sigma-Aldrich), 0.5 g L-1 vancomycin (Hospira), 1 g L-1 ampicillin (Sigma-Aldrich) and 1 g L-1 kanamycin (Fisher Scientific) dissolved in drinking water. For butyrate, acetate and propionate administration, each SCFA was added to drinking water containing antibiotics (as described above) at a final concentration of 36 mM and pH-adjusted, if needed, to match that of antibiotic-only water. Butyrate was administered to mice after prior treatment with antibiotics for at least 1 week. […]

[4] = tested on: Foxp3 promoter and CNS1 enhancer; experiment: H3K27Ac ChIP-qPCR at the Foxp3 locus; format: cell-based, mouse; conditions: 3 days, CD3/CD28 beads and TGF-β
Experimental: H3K27Ac ChIP-qPCR was performed as previously described (Samstein, R. M. et al. Cell, 2012, 151, 153-66). Briefly, fixed cells were lysed and mono- and poly-nucleosomes were obtained by partial digestion with micrococcal nuclease (12,000 U mL-1) in 1 min at 37° C. EDTA was added to a final concentration of 50 mM to stop the reaction, and digested nuclei were resuspended in nuclear lysis buffer with 1% SDS. After sonication, 1 ug H3K27Ac-specific antibody (Abcam, ab4729) was used to precipitate H3K27Ac-bound chromatin. Washing and de-crosslinking was performed as described (Samstein, R. M. et al. Cell, 2012, 151, 153-66).

[5] = Butyrate levels in fecal pellets after butyrate in drinking water; format: in vivo; conditions: AVNM-treated mice given butyrate via drinking water
Experimental: Stool samples were collected directly into sterile tubes from live mice and snap-frozen before preparation of material for SCFA quantification by HPLC or LC-MS (see corresponding section for further sample processing).
HPLC analysis was performed for analysis of derivatized stool extracts as previously described (Torii, T. et al. Ann. Clin. Biochem, 2010, 47, 447-452). Briefly, flash-frozen stool samples were extracted with 70% ethanol and brought to a final concentration of 0.1 μg μL-1. Debris was removed by centrifugation and 300 μL of supernatant was transferred to a new tube and combined with 50 μL of internal standard (2-ethylbutyric acid, 200 mM in 50% aqueous methanol), 300 μL of dehydrated pyridine 3% v/v (Wako) in ethanol, 300 μL of 250 mM N-(3-dimethlaminopropyl)-N′-ethylcarbodiimide hydrochloride (Sigma-Aldrich) in ethanol, and 300 μL of 20 mM 2-nitrophenylhydrazine hydrochloride (Tokyo Chemical) in ethanol. Samples were incubated at 60° C. for 20 min and 200 μL of potassium hydroxide 15% w/v dissolved 80/20 in methanol was added to stop the derivatization reaction. […] Derivatized SCFA were resuspended in 100 μL of mobile phase (below) and 20 μL was chromatographed on a Shimadzu HPLC system equipped with a Vydac 2.1×30 mm 300 A C18 column run at 200 μL min-1 in methanol/acetonitrile/TFA (30%/16%/0.1% v/v) and monitored for absorbance at 400 nm.

[6] = tested on: Flt3L-elicited CD11c+ dendritic cells; experiment: DC viability by live/dead staining and flow cytometry; format: cell-based, mouse; conditions: butyrate pretreatment 6 h

With `CC(=O)O` [acetate] the “ability of pre-treated DCs to induce Foxp3 expression in naïve CD4+ T cells” value (Flt3L-elicited DC) was “not”, the “TGF-β-dependent generation of Foxp3+ cells in vitro” value (from here on “TGF-β-dependent generation”) (naïve CD4+ T cells [1]) was “not” and the “colonic Treg cells (accumulation of Treg cells in the colon)” value (Foxp3+ Treg cells; AVNM-treated mice) was “promoted accumulation”. For the same compound, the “Treg cell subsets in the spleen” value (Foxp3+ Treg cells) was “did not increase” and the “accumulation of Treg cells in the colon by activating GPR43” value (GPR43) was “promote accumulation”.
With `CCCC(=O)O` [butyrate] the “increase in numbers of Foxp3+ cells in DC-free cultures” value (naïve CD4+ T cells [2]) was < 1.5 fold, the butyrate serum levels [3] was “comparable to those found in unperturbed SPF mice” and the “increase in H3K27-Ac occupancy” value ([4]; Foxp3+ cells) was ~30%. For the same compound, the “increase in H3K27-Ac at the Foxp3 promoter and CNS1 enhancer” value ([4]; Foxp3− cells) was 3 fold, the “levels of butyrate in fecal pellets” value [5] was “not reconstituted” and the non-lymphoid tissue histology (Foxp3+ Treg cells; butyrate in drinking water, AVNM-treated mice) was “remained unchanged”. The DC viability [6] was “no detrimental effect; also recorded: maintain”.
For `CC(C)CC(=O)O` [isovalerate], the “TGF-β-dependent generation” value (naïve CD4+ T cells [1]) was “augmented”.
With `CCC(=O)O` [propionate] the “ability of pre-treated DCs to induce Foxp3 expression in naïve CD4+ T cells” value (Flt3L-elicited DC) was “to a lesser extent”, the “TGF-β-dependent generation” value (naïve CD4+ T cells [1]) was “augmented” and the “colonic Treg cells (accumulation of Treg cells in the colon)” value (Foxp3+ Treg cells; AVNM-treated mice) was “promoted accumulation”. The “Treg cell subsets in the spleen” value (Foxp3+ Treg cells) was “increased” and the “accumulation of Treg cells in the colon by activating GPR43” value (GPR43) was “promote accumulation”.
